For this test, the target named is human vasopressin V1a receptor subtype (Homo sapiens, UniProt P37288). The test can be described thus: Vasopressin binding in CHO cell membranes expressing human vasopressin V1a subtype receptors. As to conditions: [3H]Manning ligand; for inhibition at 0.1 µM / V1a % inhibition at 100 nM: 100 nM; for IC50: value in parentheses. From the text: Vasopressin Binding in Chinese Hamster Ovary Cell Membranes Expressing Human Vasopressin V1a Subtype Receptors
Chinese hamster ovary cells (CHO cells) stably transfected with the human vasopressin V1a subtype receptors were either obtained from Biosignal Inc., 1744 rue Williams, Montreal, Quebec, Canada or obtained from M. Thibonnier, Case Western Reserve University School of Medicine, Cleveland, Ohio. A. Passaging and Amplification of Cells: CHO cells transfected with the human vasopressin V1a subtype receptors obtained from M. Thibonnier (pZeoSV vector) are allowed to grow to confluency (approx. >90%) in T-150 flasks under sterile conditions, in a cell culture medium of F-12 Nutrient Mixture (HAM) with L-glutamine (Gibco Cat. # 11765-054) containing 15 mM HEPES (Gibco Cat. 15630-080), 1% antibiotic/antimycotic (add 5 mL 100×, Gibco Cat. 15240-062 per 500 mL F-12), 250 μg/mL Zeocin (add 1.25 mL of 100 mg/mL Invitrogen R-250-01 per 500 mL F-12) and 10% Fetal Bovine Serum (Qualified, heat inactivated, Gibco Cat. # 16140-063). The medium is removed by aspiration and the cells are washed with 10 mL of Hank's Balanced Salt solution (Gibco Cat. # 14175-095). The salt solution is removed by aspiration and the cells are trypsinized with 5 mL of trypsin-EDTA (0.05% trypsin, 0.53 mM EDTA-4Na, Gibco Cat. # 25300-070) for 1 min. The trypsin is removed by aspiration and the cells dislodged by tapping. Cell Culture medium (eg, 30 mL for 1:30 split) is immediately added and mixed well to inactivate trypsin. 1 mL of detached cells is added to new culture flasks containing fresh cell culture medium (eg, into 25 mL per T-150 flask), and mixed gently. The cells are incubated at 37° C. in 5% CO2. The medium is changed at 3 to 4 days interval (or as appropriate). The cells grow to confluency (approx. >75%–95%) within 7–8 days. All steps are done under sterile conditions. B. Membrane Preparation: The cells are washed twice gently with Hank's Balanced Salt solution (e.g,. use 10 mL per T-150 flask). The excess is removed and the cells are bathed for 15–30 min. in an enzyme-free Cell Dissociation Buffer (e.g. use 8 mL Hank's Based, Gibco Cat. # 13150-016 per T-150 flask) until the cells are loosened. The contents are transferred to centrifuge tubes (50 mL) kept in an ice bath. All subsequent steps are done at 4° C. The tubes are centrifuged at 300×g for 15 min (1380 rpm on SORVAL, Model RT6000D, using rotor for the 50 mL tubes). The supernatant is discarded and the cells suspended in homogeneizing buffer(10 mM Tris-HCl containing 0.25 M sucrose and 1 mM EDTA, pH 7.4) ensuring that the volume of the buffer is about ten times the volume of the cell pellet. The cells are pooled into a centrifuge tube (50 mL) and homogenized with Polytron at setting 6 for 10 sec. The homogenate is transferred into a Potter-Elvjehm homogenizer and homogenized with 3 strokes. The homogenate is centrifuged at 1500× g for 10 min at 4° C. (3100 rpm using SORVAL, model RT6000D, using the rotor for 50 mL tubes). The pellet is discarded. The supernatant is centrifuged at 100,000×g for 60 min. at 4° C. (Beckman L8-80M ultracentrifuge; spin at 37,500 rpm with rotor type 70 Ti for 50 mL tubes; 38,000 rpm with type 80Ti for 15 mL tubes; or 35,800 rpm with rotor type 45Ti). The supernantant is discarded and the pellet suspended in 3 to 4 mL of Tris buffer (50 mM TRIS-HCl, pH 7.4). The protein content is estimated by the Bradford or Lowry method. The volume of the membrane suspension is adjusted with the membrane buffer (50 mM Tris-HCl containing 0.1% BSA and 0.1 mM PMSF) to give 3.0 mg/mL (or as appropriate) of protein. The membranes are aliquoted and stored at −70° C. C. […]

Each structure is given as a SMILES string.

human vasopressin V1a receptor subtype, sequence (P37288 whole entry): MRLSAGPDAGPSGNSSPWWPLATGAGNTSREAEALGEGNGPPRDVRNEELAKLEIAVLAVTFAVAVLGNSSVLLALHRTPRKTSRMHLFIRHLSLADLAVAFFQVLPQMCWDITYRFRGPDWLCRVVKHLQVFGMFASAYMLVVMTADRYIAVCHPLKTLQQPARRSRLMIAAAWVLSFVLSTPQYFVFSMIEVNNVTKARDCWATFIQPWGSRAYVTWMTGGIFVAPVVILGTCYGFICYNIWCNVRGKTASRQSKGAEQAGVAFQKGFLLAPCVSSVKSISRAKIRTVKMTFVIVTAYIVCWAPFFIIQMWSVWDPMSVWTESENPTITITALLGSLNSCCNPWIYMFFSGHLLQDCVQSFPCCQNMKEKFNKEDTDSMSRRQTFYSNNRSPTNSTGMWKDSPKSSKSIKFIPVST

Consider `COC(=O)c1ccc2c(c1)N(C(=O)c1ccc(C3CCCCC3)cc1)Cc1ccc(C(=O)N3CCN(C)CC3)n1C2.Cl` [Example 1, Methyl 10-(4-cyclohexylbenzoyl)-3-[(4-methyl-1-piperazinyl)carbonyl]-10,11-dihydro-5H-pyrrolo[2,1-c][1,4]benzodiazepine-8-carboxylate hydrochloride salt], for which the inhibition at 0.1 µM is -7%.
In the case of `CN1CCN(C(=O)c2ccc3n2Cc2ccc(C(=O)O)cc2N(C(=O)c2ccc(C4CCCCC4)cc2)C3)CC1` [Example 3, 10-(4-Cyclohexyl-benzoyl)-3-[(4-methyl-1-piperazinyl)carbonyl]-10,11-dihydro-5H-pyrrolo[2,1-c][1,4]benzodiazepine-8-carboxylic acid], the inhibition at 0.1 µM is -19%.
Consider `CC(C)(C)c1ccc(C(=O)c2ccc3n2Cc2ccccc2N(C(=O)c2ccc(C4CCCCC4)cc2)C3)cc1` [Example 5, [4-(tert-Butyl)phenyl][10-(4-cyclohexyl-benzoyl)-10,11-dihydro-5H-pyrrolo[2,1-c][1,4]benzodiazepin-3-yl]methanone], for which the inhibition at 0.1 µM turned out to be 3%.
As for `CC(=O)c1ccc2n1Cc1ccccc1N(C(=O)c1ccc(C3CCCCC3)cc1)C2` [Example 6, 1-[10-(4-Cyclohexyl-benzoyl)-10,11-dihydro-5H-pyrrolo[2,1-c][1,4]benzodiazepin-3-yl]-ethanone], the half-maximal inhibitory concentration (IC50) was 258 nM.
With `O=C(c1ccc(C2CCCCC2)cc1)N1Cc2ccc(C(=O)C(Cl)(Cl)Cl)n2Cc2ccccc21` [Example 7, 2,2,2-Trichloro-1-[10-(4-cyclohexyl-benzoyl)-10,11-dihydro-5H-pyrrolo[2,1-c][1,4]benzodiazepin-3-yl]-1-ethanone], the inhibition at 0.1 µM turned out to be 4%.
For `NNC(=O)c1ccc2n1Cc1ccccc1N(C(=O)c1ccc(C3CCCCC3)cc1)C2` [Example 8, 10-(4-Cyclohexy-benzoyl)-10,11-dihydro-5H-pyrrolo[2,1-c][1,4]benzodiazepine-3-carboxylic acid hydrazide], the IC50 was 543 nM.
On to `CC(=NNC(=O)c1ccc2n1Cc1ccccc1N(C(=O)c1ccc(C3CCCCC3)cc1)C2)N(C)C` [Example 9, N′-{[10-(4-Cyclohexyl-benzoyl)-10,11-dihydro-5H-pyrrolo[2,1-c][1,4]benzodiazepin-3-yl]carbonyl}-N,N-dimethylethanehydrazonamide], for which the half-inhibitory concentration (IC50) worked out at 146 nM.
In the case of `CN(C)C=NNC(=O)c1ccc2n1Cc1ccccc1N(C(=O)c1ccc(C3CCCCC3)cc1)C2` [Example 10, N′-{[10-(4-Cyclohexyl-benzoyl)-10,11-dihydro-5H-pyrrolo[2,1-c][1.4]benzodiazepin-3-yl]carbonyl}-N,N-dimethylhydrazonoformamide], the IC50 was 366 nM.
With `CC(=O)NNC(=O)c1ccc2n1Cc1ccccc1N(C(=O)c1ccc(C3CCCCC3)cc1)C2` [Example 11, N′-Acetyl-10-(4-cyclohexyl-benzoyl)-10,11-dihydro-5H-pyrrolo[2,1-c][1,4]benzodiazepine-3-carbonyl-hydrazide], the IC50 is 367 nM.
On to `Cc1ccccc1C(=O)NNC(=O)c1ccc2n1Cc1ccccc1N(C(=O)c1ccc(C3CCCCC3)cc1)C2` [Example 12, 10-(4-Cyclohexyl-benzoyl)-N′-(2-methylbenzoyl)-10,11-dihydro-5H-pyrrolo[2,1-c][1,4]benzodiazepine-3-carbonyl-hydrazide], for which the “V1a % inhibition at 100 nM” value is on record as 31%.
For the compound `O=C(NNC(=O)C1CC1)c1ccc2n1Cc1ccccc1N(C(=O)c1ccc(C3CCCCC3)cc1)C2` [Example 13, 10-(4-Cyclohexyl-benzoyl)-N′-(cyclopropylcarbonyl)-10,11-dihydro-5H-pyrrolo[2,1-c][1,4]benzodiazepine-3-carbonyl-hydrazide], the “V1a % inhibition at 100 nM” value is listed as 35%.
In the case of `Cc1cccc(C(=O)NNC(=O)c2ccc3n2Cc2ccccc2N(C(=O)c2ccc(C4CCCCC4)cc2)C3)c1` [Example 14, 10-(4-Cyclohexyl-benzoyl)-N′-(3-methyl-benzoyl)-10,11-dihydro-5H-pyrrolo[2,1-c][1,4]benzodiazepine-3-carbonyl-hydrazide], the “V1a % inhibition at 100 nM” value was 23%.
Turning to `O=C(NNC(=O)c1ccc2n1Cc1ccccc1N(C(=O)c1ccc(C3CCCCC3)cc1)C2)Nc1ccccc1` [Example 15, 2-{[10-(4-Cyclohexyl-benzoyl)-10,11-dihydro-5H-pyrrolo[2,1-c][1,4]benzodiazepin-3-yl]carbonyl}-N-phenyl-1-hydrazinecarboxamide], the inhibition at 0.1 µM is -4%.
Consider `NC(=O)c1ccc2n1Cc1ccccc1N(C(=O)c1ccc(C3CCCCC3)cc1)C2` [Example 16, 10-(4-Cyclohexyl-benzoyl)-10,11-dihydro-5H-pyrrolo[2,1-c][1,4]benzodiazepin-3-carboxamide], for which the IC50 came to 377 nM.
In the case of `CN(C)/C=N/C(=O)c1ccc2n1Cc1ccccc1N(C(=O)c1ccc(C3CCCCC3)cc1)C2` [Example 17], the IC50 was 306 nM.
For `C/C(=N\C(=O)c1ccc2n1Cc1ccccc1N(C(=O)c1ccc(C3CCCCC3)cc1)C2)N(C)C` [Example 18], the IC50 worked out at 87.5 nM.
As to `CN(C)NC(=O)c1ccc2n1Cc1ccccc1N(C(=O)c1ccc(C3CCCCC3)cc1)C2` [Example 19, 10-(4-Cyclohexyl-benzoyl)-N′-N′-dimethyl-10,11-dihydro-5H-pyrrolo[2,1-c][1,4]benzodiazepine-3-carbohydrazide], the IC50 turned out to be 880 nM.
As for `CN(C)/C=C/C(=O)c1ccc2n1Cc1ccccc1N(C(=O)c1ccc(C3CCCCC3)cc1)C2` [Example 20, (E)-1-[10-(4-Cyclohexyl-benzoyl)-10,11-dihydro-5H-pyrrolo[2,1-c][1,4]benzodiazepin-3-yl]-3-(dimethylamino)-2-propen-1-one], the inhibition at 0.1 µM was 21%.
For the compound `CN(N)C(=O)c1ccc2n1Cc1ccccc1N(C(=O)c1ccc(C3CCCCC3)cc1)C2` [Example 21, 10-(4-Cyclohexyl-benzoyl)-N-methyl-10,11-dihydro-5H-pyrrolo[2,1-c][1,4]benzodiazepine-3-carboxylic acid hydrazide], the inhibition at 0.1 µM was found to be 21%.
For the compound `O=C(O)c1ccc2n1Cc1ccccc1N(C(=O)c1ccc(C3CCCCC3)cc1)C2` [Example 22, 10-(4-Cyclohexyl-benzoyl)-10,11-dihydro-5H-pyrrolo[2,1 c][1,4]benzodiazepine-3-carboxylic acid], the “V1a % inhibition at 100 nM” value came out at 13%.
As for `O=C(c1ccc2n1Cc1ccccc1N(C(=O)c1ccc(C3CCCCC3)cc1)C2)N1CCN(c2ncccn2)CC1` [Example 23], the IC50 turned out to be 635 nM.
Regarding `CN1CCN(C(=O)c2ccc3n2Cc2ccccc2N(C(=O)c2ccc(C4CCCCC4)cc2)C3)CC1` [Example 24, [10-(4-Cyclohexyl-benzoyl)-10,11-dihydro-5H-pyrrolo[2,1-c][1,4]benzodiazepin-3-yl](4-methyl-1-piperazinyl)-methanone], the IC50 was found to be 203 nM.
Consider `O=C(c1ccc2n1Cc1ccccc1N(C(=O)c1ccc(C3CCCCC3)cc1)C2)N1CCC(N2CCCC2)CC1` [Example 25, [10-(4-Cyclohexyl-benzoyl)-10,11-dihydro-5H-pyrrolo[2,1-c][1,4]benzodiazepin-3-yl][4-(1-pyrrolidinyl)-1-piperidinyl]methanone], for which the IC50 was 90.4 nM.
Same read-out and setting: in the case of `O=C(c1ccc2n1Cc1ccccc1N(C(=O)c1ccc(C3CCCCC3)cc1)C2)N1CCC(N2CCCCC2)CC1` [Example 26, [1,4′]Bipiperidinyl-1′-yl-[10-(4-cyclohexyl-benzoyl)-10,11-dihydro-5H-pyrrolo[2,1-c][1,4]benzodiazepin-3-yl]-methanone] it was 200 nM.

One may read the inhibition as the change of the read-out against control, counted positive when it falls. What is called IC50 is the point on the concentration scale where inhibition reaches its midpoint.

Source of the values: US7202239B2, “Cyclohexylphenyl carboxamides tocolytic oxytocin receptor antagonists” (Wyeth, priority 2001, dated 2007).
